Test results: PubChem BioAssay (NCI)
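Growth conditions: 96-well plates. Treatment: test compound, 48 hours, 5 concentrations. Analysis: linear interpolation between bracketing concentrations; unreached endpoints set to highest concentration. The concentration for full growth arrest is given as TGI.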

Columns and labels:
Assay in all cases: DTP human tumour cell line panel, 48 h
ACHN renal = tested on: ACHN renal
CAKI-1 renal = tested on: CAKI-1 renal
MDA-MB-435 = tested on: MDA-MB-435
SW-620 colon = tested on: SW-620 colon
A498 renal = tested on: A498 renal
SK-MEL-5 melanoma = tested on: SK-MEL-5 melanoma
NCI-H460 lung = tested on: NCI-H460 lung
HT29 colon = tested on: HT29 colon
PC-3 prostate = tested on: PC-3 prostate
NCI-H522 lung = tested on: NCI-H522 lung
UO-31 renal = tested on: UO-31 renal
SNB-75 CNS = tested on: SNB-75 CNS
OVCAR-8 ovarian = tested on: OVCAR-8 ovarian
CCRF-CEM leukemia = tested on: CCRF-CEM leukemia
SR leukemia = tested on: SR leukemia
HL-60(TB) leukemia = tested on: HL-60(TB) leukemia
SNB-19 CNS = tested on: SNB-19 CNS
SF-539 CNS = tested on: SF-539 CNS
K-562 leukemia = tested on: K-562 leukemia
MDA-N = tested on: MDA-N
NCI-H226 lung = tested on: NCI-H226 lung
MOLT-4 leukemia = tested on: MOLT-4 leukemia
MCF7 breast = tested on: MCF7 breast
U251 CNS = tested on: U251 CNS
RXF 393 renal = tested on: RXF 393 renal
OVCAR-5 ovarian = tested on: OVCAR-5 ovarian
DU-145 prostate = tested on: DU-145 prostate
A549 NSCLC = tested on: A549 NSCLC
SK-MEL-28 melanoma = tested on: SK-MEL-28 melanoma
TK-10 renal = tested on: TK-10 renal
786-0 renal = tested on: 786-0 renal
SK-MEL-2 melanoma = tested on: SK-MEL-2 melanoma
HCT-116 colon = tested on: HCT-116 colon
HCT-15 colon = tested on: HCT-15 colon
LOX IMVI melanoma = tested on: LOX IMVI melanoma
SF-268 CNS = tested on: SF-268 CNS
NCI-H23 lung = tested on: NCI-H23 lung
UACC-257 melanoma = tested on: UACC-257 melanoma
HCC-2998 colon = tested on: HCC-2998 colon
SK-OV-3 ovarian = tested on: SK-OV-3 ovarian
SN12C renal = tested on: SN12C renal
IGROV1 ovarian = tested on: IGROV1 ovarian
HOP-62 NSCLC = tested on: HOP-62 NSCLC
M14 melanoma = tested on: M14 melanoma
MALME-3M melanoma = tested on: MALME-3M melanoma
OVCAR-4 ovarian = tested on: OVCAR-4 ovarian
COLO 205 colon = tested on: COLO 205 colon
T-47D breast = tested on: T-47D breast
SF-295 CNS = tested on: SF-295 CNS
OVCAR-3 ovarian = tested on: OVCAR-3 ovarian
NCI/ADR-RES ovarian = tested on: NCI/ADR-RES ovarian
MDA-MB-231 breast = tested on: MDA-MB-231 breast
HOP-92 NSCLC = tested on: HOP-92 NSCLC
EKVX NSCLC = tested on: EKVX NSCLC
UACC-62 melanoma = tested on: UACC-62 melanoma
BT-549 breast = tested on: BT-549 breast
KM12 colon = tested on: KM12 colon
RPMI-8226 leukemia = tested on: RPMI-8226 leukemia

Measured: TGI

Cc1cc(C)n(-c2nc3ccccc3c(=O)n2-c2ccccc2)n1
14.3 µM: UO-31 renal
not listed: HOP-92 NSCLC | EKVX NSCLC | UACC-62 melanoma | BT-549 breast | KM12 colon | RPMI-8226 leukemia
> 100 µM: all other assays above

N#Cc1c(C#N)c(-c2ccco2)n(-c2ccccc2)c1N
84.4 µM: SNB-75 CNS
73.1 µM: OVCAR-8 ovarian
not listed: NCI-H460 lung | SK-MEL-28 melanoma
> 100 µM: all other assays above
